Experimental data from patent US10632195B2, “Pharmaceutical device for electric-field assisted administration of Tapentadol and method of administering Tapentadol with same” (Gruenenthal GmbH, priority 2012, dated 2020).
“And” between values parts separate entries of the source, which are not always exact repeats. Equal values may be shown once. Where a name gives a salt, the structure may show the parent alone.

Assay: passive transdermal delivery of Tapentadol hydrochloride, 24 hours, no current (comparative example 1b, passive control)
Assay type: in vitro ADME, pig
Details: for cumulative, passive delivery across the skin, Mean / cumulative, passive delivery across the skin, as tapentadol base, Mean / drug flux across the skin, Mean / drug flux across the skin, as tapentadol base, Mean: n=2; for cumulative, passive delivery across the skin, Mean / cumulative, passive delivery across the skin, as tapentadol base, Mean / drug flux across the skin, Mean / drug flux across the skin, as tapentadol base, Mean / drug flux across the skin / cumulative, passive delivery across the skin: patch area 0.64 cm^2; for drug flux across the skin, Mean / drug flux across the skin, as tapentadol base, Mean / drug flux across the skin: passive, no current; for drug flux across the skin / cumulative, passive delivery across the skin: single cells 1-2
Description: For comparison, the rate of transdermal delivery of Tapentadol hydrochloride for a period of 24 hours has been determined without any means of electric-field-assisted administration (passive control).
The flux of Tapentadol hydrochloride from passive diffusion alone was measured (n=2). The experimental set-up was exactly as previously described, except that no electrodes were placed in the diffusion cell and no current was applied. The temperature was held at 37° C. The receptor solution was sampled and assayed at 0.5, 1, 1.5, 2, 3, 4, 5, 6, 7, 8 and 24 hours. 1 ml of receptor solution was removed and replaced with fresh PBS at each sampling point.

Compound: CC[C@@H](c1cccc(O)c1)[C@@H](C)CN(C)C [Tapentadol hydrochloride]
- cumulative, passive delivery across the skin, Mean (0.5 h): 0 µg
- cumulative, passive delivery across the skin, as tapentadol base, Mean (0.5 h): 0 µg
- drug flux across the skin, Mean (0.5 h): 0 µg/h
- drug flux across the skin, as tapentadol base, Mean (0.5 h): 0 µg/h
- drug flux across the skin (0.5 h): 0 µg/h
- cumulative, passive delivery across the skin (0.5 h): 0 µg
- cumulative, passive delivery across the skin, Mean (1 h): 0 µg
- cumulative, passive delivery across the skin, as tapentadol base, Mean (1 h): 0 µg
- drug flux across the skin, Mean (1 h): 0 µg/h
- drug flux across the skin, as tapentadol base, Mean (1 h): 0 µg/h
- drug flux across the skin (1 h): 0 µg/h
- cumulative, passive delivery across the skin (1 h): 0 µg
- cumulative, passive delivery across the skin, Mean (1.5 h): 0 µg
- cumulative, passive delivery across the skin, as tapentadol base, Mean (1.5 h): 0 µg
- drug flux across the skin, Mean (1.5 h): 0 µg/h
- drug flux across the skin, as tapentadol base, Mean (1.5 h): 0 µg/h
- drug flux across the skin (1.5 h): 0 µg/h
- cumulative, passive delivery across the skin (1.5 h): 0 µg
- cumulative, passive delivery across the skin, Mean (2 h): 0 µg
- cumulative, passive delivery across the skin, as tapentadol base, Mean (2 h): 0 µg
- drug flux across the skin, Mean (2 h): 0 µg/h
- drug flux across the skin, as tapentadol base, Mean (2 h): 0 µg/h
- drug flux across the skin (2 h): 0 µg/h
- cumulative, passive delivery across the skin (2 h): 0 µg
- cumulative, passive delivery across the skin, Mean (3 h): 2 µg
- cumulative, passive delivery across the skin, as tapentadol base, Mean (3 h): 1 µg
- drug flux across the skin, Mean (3 h): 1 µg/h
- drug flux across the skin, as tapentadol base, Mean (3 h): 1 µg/h
- drug flux across the skin (3 h): 1 µg/h
- cumulative, passive delivery across the skin (3 h, listed as Tapentadol HCl, hydrochloride): 2 µg and 1 µg
- cumulative, passive delivery across the skin, Mean (4 h): 4 µg
- cumulative, passive delivery across the skin, as tapentadol base, Mean (4 h): 3 µg
- drug flux across the skin, Mean (4 h): 2 µg/h
- drug flux across the skin, as tapentadol base, Mean (4 h): 2 µg/h
- drug flux across the skin (4 h): 2 µg/h
- cumulative, passive delivery across the skin (4 h, listed as Tapentadol HCl, hydrochloride): 4 µg and 3 µg
- cumulative, passive delivery across the skin, Mean (5 h): 6 µg
- cumulative, passive delivery across the skin, as tapentadol base, Mean (5 h): 5 µg
- drug flux across the skin, Mean (5 h): 3 µg/h
- drug flux across the skin, as tapentadol base, Mean (5 h): 2 µg/h
- drug flux across the skin (5 h, hydrochloride): 3 µg/h and 2 µg/h
- cumulative, passive delivery across the skin (5 h, listed as Tapentadol HCl, hydrochloride): 7 µg and 5 µg
- cumulative, passive delivery across the skin, Mean (6 h): 9 µg
- cumulative, passive delivery across the skin, as tapentadol base, Mean (6 h): 8 µg
- drug flux across the skin, Mean (6 h): 3 µg/h
- drug flux across the skin, as tapentadol base, Mean (6 h): 3 µg/h
- drug flux across the skin (6 h, hydrochloride): 4 µg/h and 3 µg/h
- cumulative, passive delivery across the skin (6 h, listed as Tapentadol HCl, hydrochloride): 11 µg and 8 µg
- cumulative, passive delivery across the skin, Mean (7 h): 13 µg
- cumulative, passive delivery across the skin, as tapentadol base, Mean (7 h): 11 µg
- drug flux across the skin, Mean (7 h): 3 µg/h
- drug flux across the skin, as tapentadol base, Mean (7 h): 3 µg/h
- drug flux across the skin (7 h, hydrochloride): 4 µg/h and 3 µg/h
- cumulative, passive delivery across the skin (7 h, listed as Tapentadol HCl, hydrochloride): 14 µg and 11 µg
- cumulative, passive delivery across the skin, Mean (8 h): 18 µg
- cumulative, passive delivery across the skin, as tapentadol base, Mean (8 h): 15 µg
- drug flux across the skin, Mean (8 h): 5 µg/h
- drug flux across the skin, as tapentadol base, Mean (8 h): 4 µg/h
- drug flux across the skin (8 h, hydrochloride): 5 µg/h and 4 µg/h
- cumulative, passive delivery across the skin (8 h, listed as Tapentadol HCl, hydrochloride): 20 µg and 15 µg
- cumulative, passive delivery across the skin, Mean (24 h): 186 µg
- cumulative, passive delivery across the skin, as tapentadol base, Mean (24 h): 159 µg
- drug flux across the skin, Mean (24 h): 11 µg/h
- drug flux across the skin, as tapentadol base, Mean (24 h): 9 µg/h
- drug flux across the skin (24 h, hydrochloride): 11 µg/h and 10 µg/h
- cumulative, passive delivery across the skin (24 h, listed as Tapentadol HCl, hydrochloride): 192 µg and 179 µg
- rate of passive diffusion (by 24 hours): 16 μg/h/cm2
- time within which steady state flux was not reached (comparative example 1b, passive diffusion): > 8 h
